Values quoted from earlier work in US6909021B2, “Method of extracting lutein from green plant materials” (Alfalfa America, Inc., priority 2003, dated 2005).

How the values were obtained:
[1] = test system: age-related macular degeneration (AMD); details: dietary intake
[2] = water wash of green protein chloroplast fraction

Row | Compound | effect on the rate of AMD [1] | solubility in water [2]
1 | vitamin A | not seen to have an effect | –
2 | [Zn] [zinc] | not seen to have an effect | –
3 | vitamin E | not seen to have an effect | –
4 | CC1=C[C@H](O)CC(C)(C)[C@H]1/C=C/C(C)=C/C=C/C(C)=C/C=C/C=C(C)/C=C/C=C(C)/C=C/C1=C(C)C[C@@H](O)CC1(C)C [Lutein] | – | very little solubility
5 | CC1=C(/C=C/C(C)=C/C=C/C(C)=C/C=C/C=C(C)/C=C/C=C(C)/C=C/C2=C(C)CCCC2(C)C)C(C)(C)CCC1 [Beta-carotene] | not seen to have an effect | –
